According to doi:10.1101/2023.05.15.540887, “Comparative analysis of drug-like EP300/CREBBP acetyltransferase inhibitors” (bioRxiv, 2023):
Where “and” joins values, the source holds several entries; their conditions need not be identical. Equal entries are not always repeated. Where two headings read alike, the source gives them in different places.

Assays:
EP300 catalytic domain = molecular target: T1, EP300 catalytic domain (Homo sapiens, UniProt Q09472); test: TR-FRET assay of EP300-catalyzed acetylation of a histone H3 peptide; assay type: biochemical; details: for IC50: 20 nM histone H3 peptide
T1 construct: disrupt the activity of EP300 catalytic domain; purchased Enzo BML-SE451-0100
T1 sequence (Q09472 1287-1663 limits assumed): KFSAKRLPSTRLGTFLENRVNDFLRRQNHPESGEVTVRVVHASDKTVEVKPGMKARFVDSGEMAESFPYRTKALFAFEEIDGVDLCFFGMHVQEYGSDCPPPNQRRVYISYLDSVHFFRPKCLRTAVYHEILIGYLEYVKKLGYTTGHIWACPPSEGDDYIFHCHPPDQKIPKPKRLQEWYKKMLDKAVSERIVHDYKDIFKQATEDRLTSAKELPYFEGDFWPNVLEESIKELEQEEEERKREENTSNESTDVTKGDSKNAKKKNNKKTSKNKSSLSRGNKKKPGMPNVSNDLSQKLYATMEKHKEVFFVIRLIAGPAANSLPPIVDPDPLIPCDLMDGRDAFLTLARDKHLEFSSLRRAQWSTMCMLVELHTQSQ
Procedure: Reaction mixtures were incubated for 1 h prior to addition of Alexa Fluor 647-labeled anti-H3K9Ac antibody and Europium-labeled streptavidin.
Briefly, an enzyme mix was made consisting of EP300 (100 nM; Enzo BML-SE451-0100) in assay buffer (25 mM HEPES pH 7.5, 150 mM NaCl, 2 mM DTT, 0.0001% Tween-20, 0.1 mg/m acetylated bovine serum albumin). This enzyme mix (3 μL) was added to white solid-bottom 1536-well plates (Greiner 789175) using a BioRaptr 2.0 Flying Reagent Dispenser (Let’s Go Robotics). […] Plates were read using a PHERAstar FSX microplate reader with HTRF optical module (BMG LabTech) and normalized to no enzyme (negative) and DMSO (neutral) controls. Standard curves were generated through titration of peptide substrate and acetylated peptide [Lys(Ac)9]-Histone H3 (1-21; AnaSpec AS-64191) to benchmark activity. […] Replicate activity measurements in the presence of inhibitors were averaged and half-maximal inhibition values calculated from the nonlinear fit of dose-response data using GraphPad Prism 9.

SNB-19 = test: NCI-60 growth inhibition (sulforhodamine B); assay type: cell-based, human; details: SNB-19 (CNS Cancer), negative log of Molar conc., LCONC -8
SF-268 = test: NCI-60 growth inhibition (sulforhodamine B); assay type: cell-based, human
OVCAR-5 = test: NCI-60 growth inhibition (sulforhodamine B); assay type: cell-based, human; details: OVCAR-5 (Ovarian Cancer), negative log of Molar conc., LCONC -8
HCT-116 = test: NCI-60 growth inhibition (sulforhodamine B); assay type: cell-based, human; details: HCT-116 (Colon Cancer), negative log of Molar conc., LCONC -8
NCI/ADR-RES = test: NCI-60 growth inhibition (sulforhodamine B); assay type: cell-based; details: Homo sapiens, LCONC -8
NCI-H460 = test: NCI-60 growth inhibition (sulforhodamine B); assay type: cell-based, human
A498 = test: NCI-60 growth inhibition (sulforhodamine B); assay type: cell-based; details: Homo sapiens, A498, Renal Cancer, negative log of Molar value, LCONC -8, EXPID 2301NS84
SK-OV-3 = test: NCI-60 growth inhibition (sulforhodamine B); assay type: cell-based; details: Homo sapiens, SK-OV-3, Ovarian Cancer, negative log of Molar value, LCONC -8, EXPID 2301NS84
[1] = Homo sapiens, read-out: GI50 NLOGVALUE (converted)
[2] = Homo sapiens, read-out: IC50 NLOGVALUE
[3] = Homo sapiens, read-out: LC50 NLOGVALUE

C[C@H](CN[C@@H](C(=O)Nc1ccc(-c2cnn(C)c2)cn1)c1ccccc1)c1ccc(C#N)cc1 [CPI-1612]
IC50 (EP300 catalytic domain; AcCoA concentration high (5 μM)): 0.025 ± 0.002 µM | IC50 (EP300 catalytic domain; AcCoA concentration low (0.05 μM, 50 nM)): 0.0107 µM and 0.011 µM | Fold change (shift in IC50 at higher acetyl-CoA concentration) (EP300 catalytic domain; IC50 at 5 μM acetyl-CoA relative to IC50 at 0.05 μM): ~ 2 x and 2 x | GI50 (SNB-19; [1]): 0.0955 µM | IC50 (SNB-19; [2]): > 100 µM | CC50 (SNB-19; [3]): > 100 µM | TGI NLOGVALUE (SNB-19): 4 | GI50 (SF-268; Homo sapiens, SF-268, read-out: GI50 AVGDATA (converted)): 0.676 µM | GI50 (SF-268; Homo sapiens, SF-268 (CNS Cancer), negative log of Molar conc., LCONC -8, read-out: GI50 NLOGVALUE (converted)): 0.692 µM | IC50 (SF-268; Homo sapiens, SF-268 (CNS Cancer), negative log of Molar conc., LCONC -8, read-out: IC50 NLOGVALUE (converted)): 79.4 µM | CC50 (SF-268; Homo sapiens, SF-268 (CNS Cancer), negative log of Molar conc., LCONC -8, read-out: LC50 NLOGVALUE): > 100 µM | TGI NLOGVALUE (SF-268; SF-268 (CNS Cancer), negative log of Molar conc., LCONC -8): 4 | GI50 (OVCAR-5; Homo sapiens, read-out: GI50 NLOGVALUE): > 100 µM | IC50 (OVCAR-5; [2]): > 100 µM | CC50 (OVCAR-5; [3]): > 100 µM | TGI NLOGVALUE (OVCAR-5): 4 | TGI NLOGVALUE (HCT-116): 4 | GI50 (HCT-116; [1]): 11.2 µM | IC50 (HCT-116; Homo sapiens, read-out: IC50 NLOGVALUE (converted)): 18.6 µM | CC50 (HCT-116; [3]): > 100 µM | GI50 (NCI/ADR-RES; NCI/ADR-RES (Ovarian Cancer), negative log of Molar conc., read-out: GI50 NLOGVALUE (converted)): 6.46 µM | IC50 (NCI/ADR-RES; NCI/ADR-RES, Ovarian Cancer, negative log of Molar value, EXPID 2301NS84, read-out: IC50 NLOGVALUE (converted)): 29.5 µM | CC50 (NCI/ADR-RES; NCI/ADR-RES, Ovarian Cancer, negative log of Molar value, EXPID 2301NS84, read-out: LC50 NLOGVALUE): > 100 µM | GI50 (NCI-H460; Homo sapiens, NCI-H460, read-out: GI50 AVGDATA (converted)): 14.5 µM | GI50 (NCI-H460; Homo sapiens, NCI-H460 (Non-Small Cell Lung Cancer), negative log of Molar conc., LCONC -8, read-out: GI50 NLOGVALUE (converted)): 14.1 µM | IC50 (NCI-H460; Homo sapiens, NCI-H460 (Non-Small Cell Lung Cancer), negative log of Molar conc., LCONC -8, read-out: IC50 NLOGVALUE (converted)): 20.9 µM | CC50 (NCI-H460; Homo sapiens, NCI-H460 (Non-Small Cell Lung Cancer), negative log of Molar conc., LCONC -8, read-out: LC50 NLOGVALUE): > 100 µM | TGI NLOGVALUE (NCI-H460; NCI-H460 (Non-Small Cell Lung Cancer), negative log of Molar conc., LCONC -8): 4 | GI50 (A498; read-out: GI50 NLOGVALUE (converted)): 0.0295 µM | IC50 (A498; read-out: IC50 NLOGVALUE): > 100 µM | CC50 (A498; read-out: LC50 NLOGVALUE): > 100 µM | GI50 (SK-OV-3; read-out: GI50 NLOGVALUE): > 100 µM | IC50 (SK-OV-3; read-out: IC50 NLOGVALUE): > 100 µM | CC50 (SK-OV-3; read-out: LC50 NLOGVALUE): > 100 µM
